Like-named read-outs stand apart in the source and are kept apart here.
Molecular target: T1, human MRGPRX2 (Homo sapiens, UniProt Q96LB1)
T1 construct: expressed in transfected cells
T1 sequence (Q96LB1 1-330): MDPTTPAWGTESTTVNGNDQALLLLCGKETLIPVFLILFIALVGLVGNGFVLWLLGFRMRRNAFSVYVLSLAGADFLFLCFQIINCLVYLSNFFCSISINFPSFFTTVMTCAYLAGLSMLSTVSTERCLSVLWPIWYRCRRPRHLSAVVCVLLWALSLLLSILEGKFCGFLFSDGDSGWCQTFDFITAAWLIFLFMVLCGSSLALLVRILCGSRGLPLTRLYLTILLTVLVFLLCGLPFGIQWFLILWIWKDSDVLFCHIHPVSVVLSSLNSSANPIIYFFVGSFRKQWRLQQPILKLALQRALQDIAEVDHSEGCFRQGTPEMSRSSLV
Assay: MRGPRX2 antagonist activity, IP-One HTRF assay in CHO cells expressing human MRGPRX2 versus Cortistatin-14
Type: cell-based
Method: CHO cells stably transfected to express human MRGPRX2 were maintained in an incubator at 37° C. with 5% CO2 and grown in F12 (HAM) media with 10% fetal bovine serum (FBS), 1% Glutamax, 1% penicillin/streptomycin, 800 μg/mL Geneticin (G418), and 300 μg/mL Hygromycin B. Cells were plated in a 384-well assay plate at 20,000 cells per well in 12 μL of Opti-MEM and kept in an incubator overnight. On the day of the assay, compounds solubilized at 10 mM in DMSO were added as a 10-point curve (30 uM final top concentration with 1:3 serial dilutions) using a Tecan D300E digital dispenser. Agonists were diluted in assay buffer (final concentrations of 5.7 mM Tris-HCl, 43 mM NaCl, 50 mM LiCI, pH=8) and 2 μL of the agonist Cortistatin-14 (CPC Scientific, catalog CORT-002) are added to each well. Final concentrations of agonists were […] Cortistatin-14. Final concentrations of DMSO were kept consistent across the plate. Plates were incubated in the dark for 1 hr at 37° C. and then for 1 hr at room temperature. IP-1 standards and HTRF detection reagents were added according to the IP-One—Gq Kit purchased from Cisbio (part number 621PAPEJ) and incubated in the dark for 1 hr at room temperature. The plate was read on a Molecular Devices SpectraMax iD5 plate reader. The HTRF ratio was calculated from the raw data and graphed using GraphPad Prism to calculate an IC50 value for each compound.
The activity ranges are denoted as follows: “+++++” denotes antagonist activity <100 nM; “++++” denotes antagonist activity between 100 and 500 nM; “+++” denotes activity between 501 and 1000 nM; “++” denotes activity between 1001 and 2500 nM; and “+” denotes activity >2500 nM.

[1] = CHO cells stably expressing human MRGPRX2, versus 0.3 uM Cortistatin-14 agonist, IP-1 HTRF readout, read-out: MRGPR2 Antagonist Activity

Row | SMILES | IC50 [1] [nM] | IC50 [nM]
1 | N#Cc1ccc(N[C@H]2CC[C@@H](NC(=O)c3cn[nH]c3C3CC3)CC2)cc1C(F)(F)F [4-46] | < 100 | 
2 | N#Cc1ccc(N[C@H]2CC[C@@H](NC(=O)c3cn[nH]c3C#N)CC2)cc1C(F)(F)F [4-56] | < 100 | 
3 | CN(C)c1ccc(C(=O)N[C@H]2CC[C@@H](Nc3ccc(C#N)c(C(F)(F)F)c3)CC2)c(F)c1 [1-13] | 100 to 500 | 
4 | CN(C)c1ccc(C(=O)N[C@H]2CC[C@@H](Nc3cc(C(F)(F)F)nc(C(F)(F)F)c3)CC2)cc1 [1-2] | 100 to 500 | 
5 | CC(=O)Nc1ccc(C(=O)N[C@H]2CC[C@@H](Nc3ccc(C#N)c(C(F)(F)F)c3)CC2)cc1 [4-48] | < 100 | 
6 | N#Cc1ccc(N[C@H]2CC[C@@H](NC(=O)c3c[nH]c4cnccc34)CC2)cc1C(F)(F)F [4-64] | < 100 | 
7 | Cc1cc(N[C@H]2CC[C@@H](NC(=O)c3ccnc(NC(C)C)c3)CC2)cc(C(F)(F)F)c1C#N [5-2] | < 100 | 
8 | COc1cccc(C(=O)N[C@H]2CC[C@@H](Nc3ccc(C#N)c(C(F)(F)F)c3)CC2)c1 [1-23] | 100 to 500 | 
9 | N#Cc1ccc(N[C@H]2CC[C@@H](NC(=O)c3ccc(N4CCOCC4)cc3)CC2)cc1C(F)(F)F [1-25] | 100 to 500 | 
10 | CC(C)S(=O)(=O)Nc1ccc(C(=O)N[C@H]2CC[C@@H](Nc3ccc(C#N)c(C(F)(F)F)c3)CC2)cc1 [1-14] | < 100 | 
11 | N#Cc1ccc(N[C@H]2CC[C@@H](NC(=O)c3cnn(CC(F)(F)F)c3)CC2)cc1C(F)(F)F [Example 17, N-((1s,4s)-4-((4-cyano-3-(trifluoromethyl)phenyl)amino)cyclohexyl)-1-(2,2,2-trifluoroethyl)-1H-pyrazole-4-carboxamide] | < 100 | 
12 | CN(C)c1ccc(C(=O)N[C@H]2CC[C@@H](Nc3ccc(C#N)c(C(F)(F)F)c3)CC2)cc1 [1-21] | < 100 | 
13 | Cc1cc(N[C@H]2CC[C@@H](NC(=O)c3ccc4nccn4c3)CC2)cc(C(F)(F)F)c1C#N [2-3] | < 100 | 
14 | O=C(N[C@H]1CC[C@@H](Nc2cc(C(F)(F)F)nc(N3CCCC3)n2)CC1)c1ccc(F)cc1 [1-9] | 1000 to 2500 | 
15 | COc1ccc(C(=O)N[C@@H]2CCC[C@H](Nc3cc(C(F)(F)F)nc(C(F)(F)F)c3)C2)cc1 [example 1, N-((1R,3S)-3-((2,6-bis(trifluoromethyl)pyridin-4-yl)amino)cyclohexyl)-4-methoxybenzamide] | > 2500 | 
16 | Cn1nccc1C(=O)N[C@H]1CC[C@@H](Nc2ccc(C#N)c(C(F)(F)F)c2)CC1 [1-17] |  | 100 to 500
17 | Cc1cc(N[C@H]2CC[C@@H](NC(=O)c3ccc(NCC(F)F)cc3)CC2)cc(C(F)(F)F)c1C#N [5-8] | < 100 | 
18 | O=C(N[C@H]1CC[C@@H](Nc2cc(C(F)(F)F)cc(C(F)(F)F)c2)CC1)c1ccccc1 [Example 13, N-((1S,4S)-4-((3,5-bis(trifluoromethyl)phenyl)amino)cyclohexyl)benzamide] | > 2500 | 

Row | SMILES | IC50 [1] [nM] | IC50 [nM]
19 | CN(C)c1cccc(C(=O)N[C@H]2CC[C@@H](Nc3cc(C(F)(F)F)nc(C(F)(F)F)c3)CC2)c1 [Example 15, N-(1S,4S)-[4-[[2,6-bis(trifluoromethyl)-4-pyridyl]amino]cyclohexyl]-3-(dimethylamino)benzamide] | 100 to 500 | 
20 | O=C(N[C@H]1CC[C@@H](Nc2cc(C(F)(F)F)cc(C(F)(F)F)c2)CC1)c1ccc(F)cc1 [Example 6, N-((1S,4S)-4-((3,5-bis(trifluoromethyl)phenyl)amino)cyclohexyl)-4-fluorobenzamide] | 1000 to 2500 | 
21 | O=C(N[C@@H]1CCC[C@H](Nc2cc(C(F)(F)F)nc(C(F)(F)F)c2)C1)c1ccccc1 [Example 2, N-((1R,3S)-3-((2,6-bis(trifluoromethyl)pyridin-4-yl)amino)cyclohexyl)benzamide] | > 2500 | 
22 | Cc1ccoc1C(=O)N[C@H]1CC[C@@H](Nc2cc(C(F)(F)F)nc(C(F)(F)F)c2)CC1 [1-5] | 1000 to 2500 | 
23 | N#Cc1ccc(N[C@H]2CC[C@@H](NC(=O)c3cn[nH]c3C(F)(F)F)CC2)cc1C(F)(F)F [4-44] | < 100 | 
24 | COc1ccc(C(=O)N[C@H]2CC[C@@H](Nc3cc(C(F)(F)F)nc(C(F)(F)F)c3)CC2)cc1 [1-3] | 100 to 500 | 
25 | Cc1cc(N[C@H]2CC[C@@H](NC(=O)c3cnn(CC(F)(F)F)c3)CC2)cc(C(F)(F)F)c1C#N [5-5] | < 100 | 
26 | Cc1cc(N[C@H]2CC[C@@H](NC(=O)c3ccc(N(C)CC(F)F)cc3)CC2)cc(C(F)(F)F)c1C#N [5-7] | < 100 | 
27 | O=C(N[C@H]1CC[C@@H](Nc2cc(C(F)(F)F)nc(C(F)(F)F)c2)CC1)c1ccc(F)cc1 [1-1] | 100 to 500 | 
28 | COc1ccc(C(=O)N[C@H]2CC[C@@H](Nc3cc(C(F)(F)F)nc(N(C)C)n3)CC2)cc1 [Example 16, N-(1S,4S)-[4-[[2-(dimethylamino)-6-(trifluoromethyl)pyrimidin-4-yl]amino]cyclohexyl]-4-methoxy-benzamide] | 501 to 1000 | 
29 | N#Cc1ccc(N[C@H]2CC[C@@H](NC(=O)c3c[nH]c4ccncc34)CC2)cc1C(F)(F)F [4-63] | < 100 | 
30 | CN(C)c1nc(N[C@H]2CC[C@@H](NC(=O)c3ccc(F)cc3)CC2)cc(C(F)(F)F)n1 [1-8] | 501 to 1000 | 
31 | N#Cc1ccc(N[C@H]2CC[C@@H](NC(=O)c3ccc4cn[nH]c4c3)CC2)cc1C(F)(F)F [4-49] | < 100 | 
32 | CNc1ccc(C(=O)N[C@H]2CC[C@@H](Nc3cc(C)c(C#N)c(C(F)(F)F)c3)CC2)cc1 [5-3] | < 100 | 
33 | Cc1cccc2[nH]cc(C(=O)N[C@H]3CC[C@@H](Nc4ccc(C#N)c(C(F)(F)F)c4)CC3)c12 [4-62] | < 100 | 
34 | COc1ccc(C(=O)N[C@H]2CCC[C@@H](Nc3cc(C(F)(F)F)cc(C(F)(F)F)c3)C2)cc1 (stereo in doubt) [example 5, N-((1S,3R)-3-((3,5-bis(trifluoromethyl)phenyl)amino)cyclohexyl)-4-methoxybenzamide] | 1000 to 2500 | 
35 | CCN(C)c1nc(N[C@H]2CC[C@@H](NC(=O)c3ccc(N(C)C)cc3)CC2)cc(C(F)(F)F)n1 [Example 11, 4-(dimethylamino)-N-(1S,4S)-[4-[[2-[ethyl(methyl)amino]-6-(trifluoromethyl)pyrimidin-4-yl]amino]cyclohexyl] benzamide] | 100 to 500 | 

Further lines, with some results ahead:

Row | IC50 [1] [nM] | SMILES | IC50 [nM]
36 | 501 to 1000 | CN(C)c1ccc(C(=O)N[C@H]2CC[C@@H](Nc3cc(C(F)(F)F)nc(N(C)C)n3)CC2)cc1 [4-17] | 
37 | 100 to 500 | O=C(N[C@H]1CC[C@@H](Nc2cc(C(F)(F)F)nc(C(F)(F)F)c2)CC1)c1ccc(-n2cnnn2)cc1 [4-30] | 
38 | 100 to 500 | O=C(N[C@H]1CC[C@@H](Nc2cc(C(F)(F)F)nc(C(F)(F)F)c2)CC1)c1ccc(-n2ccnc2)cc1 [4-25] | 
39 | 501 to 1000 | O=C(N[C@H]1CC[C@@H](Nc2cc(C(F)(F)F)nc(C(F)(F)F)c2)CC1)c1ccc(Cl)cc1 [4-14] | 
40 | 1000 to 2500 | O=C1Nc2c(C(=O)N[C@H]3CC[C@@H](Nc4cc(C(F)(F)F)nc(C(F)(F)F)c4)CC3)cccc2C1=O [4-7] | 
41 | 501 to 1000 | Cc1cc(C)n(-c2ccc(C(=O)N[C@H]3CC[C@@H](Nc4cc(C(F)(F)F)nc(C(F)(F)F)c4)CC3)cc2)n1 [4-24] | 
42 | 100 to 500 | CNc1ccc(C(=O)N[C@H]2CC[C@@H](Nc3cc(C(F)(F)F)nc(C(F)(F)F)c3)CC2)cc1 [4-4] | 
43 | 100 to 500 | O=C(N[C@H]1CC[C@@H](Nc2cc(C(F)(F)F)nc(C(F)(F)F)c2)CC1)c1c[nH]c2ccccc12 [4-22] | 
44 | 100 to 500 | O=C(N[C@H]1CC[C@@H](Nc2cc(C(F)(F)F)nc(C(F)(F)F)c2)CC1)c1ccc(-n2cccn2)cc1 [4-31] | 
45 | 1000 to 2500 | CN1CCC(C(=O)N[C@H]2CC[C@@H](Nc3cc(C(F)(F)F)nc(C(F)(F)F)c3)CC2)C1 (stereo partly shown) [4-40] | 
46 | 100 to 500 | CNC(=O)Nc1cccc(C(=O)N[C@H]2CC[C@@H](Nc3cc(C(F)(F)F)nc(C(F)(F)F)c3)CC2)c1 [4-3] | 
47 | 100 to 500 | O=C(N[C@H]1CC[C@@H](Nc2cc(C(F)(F)F)nc(C(F)(F)F)c2)CC1)c1ccc(N2CCCC2)cc1 [4-41] | 
48 | 100 to 500 | CS(=O)(=O)Nc1cccc(C(=O)N[C@H]2CC[C@@H](Nc3cc(C(F)(F)F)nc(C(F)(F)F)c3)CC2)c1 [4-10] | 
49 | 1000 to 2500 | CN(C)C(=O)N[C@H]1CC[C@@H](Nc2cc(C(F)(F)F)nc(C(F)(F)F)c2)CC1 [4-29] | 
50 | 501 to 1000 | N=C(N)Nc1ccc(C(=O)N[C@H]2CC[C@@H](Nc3cc(C(F)(F)F)nc(C(F)(F)F)c3)CC2)cc1 [4-20] | 
51 | 100 to 500 | O=C(N[C@H]1CC[C@@H](Nc2cc(C(F)(F)F)nc(C(F)(F)F)c2)CC1)c1ccc2nccn2c1 [4-39] | 
52 | 100 to 500 | COc1cccc(C(=O)N[C@H]2CC[C@@H](Nc3cc(C(F)(F)F)nc(C(F)(F)F)c3)CC2)c1 [4-1] | 
